According to patent publication US12528816B2, “Substituted imidazo [1,2-b] pyridazines and [1, 2, 4] triazolo [ 4,3-b] pyridazines as camkii inhibitors” (Cardurion Pharmaceuticals, INC., priority 2020, dated 2026):

molecular target: T1, human CaMKIIδ (Homo sapiens, UniProt Q13557); test: Evaluation of in vitro CaMKII inhibitory activity (binding assay, TR-FRET); conditions: human CaMKIIδ, TR-FRET binding assay; class symbols A/B/C; read-out: Act (CaMKII inhibitory activity, binding assay)
T1 construct: Full-length, glutathione-S-transferase(GST)-tagged, human CaMKIIδ was purchased from Carna Biosciences; purchased Carna Biosciences (CaMKIIδ); Wako Pure Chemical Industries (calmodulin) 02-111
Procedure, shortened: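 Inhibitors, in eight concentrations of 4-fold dilution, were incubated 1 h at room temperature with a protein–fluorescent probe premix preformed 30 min on ice, containing calmodulin and terbium anti-GST antibody. Displacement read by TR-FRET in duplicate; IC50 by logistic fitting.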

Structure (SMILES) | IC50
C[C@@H](Cn1cnnn1)Oc1cccc(-c2ccn3ncc(-c4cccc(C(=O)NCCN5CCOCC5)c4)c3n2)c1 [compound 67] | < 10 nM
CCN(CC)C(=O)CNC(=O)c1cccc(-c2cnn3ccc(-c4cccc(O[C@@H](C)Cn5cnnn5)c4)nc23)c1 [compound 68] | < 10 nM
CCN(CC)CCCNC(=O)c1cccc(-c2cnn3ccc(-c4cccc(O[C@@H](C)Cn5cnnn5)c4)nc23)c1 [compound 69] | < 10 nM
C[C@@H](Cn1cnnn1)Oc1cccc(-c2ccn3ncc(-c4cccc(C(=O)NC5CN(C)C5)c4)c3n2)c1 [compound 70] | < 10 nM
C[C@@H](Cn1cnnn1)Oc1cccc(-c2ccn3ncc(-c4cccc(C(=O)N5CCOCC5)c4)c3n2)c1 [compound 71] | 10 to 100 nM
C[C@@H](Cn1cnnn1)Oc1cccc(-c2ccn3ncc(-c4cccc(C(=O)NCC(C)(C)C)c4)c3n2)c1 [compound 72] | < 10 nM
CC(=O)NC1CCN(C(=O)c2cccc(-c3cnn4ccc(-c5cccc(O[C@@H](C)Cn6cnnn6)c5)nc34)c2)CC1 [compound 73] | 10 to 100 nM
C[C@@H](Cn1cnnn1)Oc1cccc(-c2ccn3ncc(-c4cccc(C(=O)NCCCN5CCCC5=O)c4)c3n2)c1 [compound 74] | < 10 nM
CC(=O)N1CCC(NC(=O)c2cccc(-c3cnn4ccc(-c5cccc(O[C@@H](C)Cn6cnnn6)c5)nc34)c2)CC1 [compound 75] | < 10 nM
C[C@@H](Cn1cnnn1)Oc1cccc(-c2ccn3ncc(-c4cccc(C(=O)NCCC5CCN(C)CC5)c4)c3n2)c1 [compound 76] | < 10 nM
CNC(=O)CNC(=O)c1cccc(-c2cnn3ccc(-c4cccc(O[C@@H](C)Cn5cnnn5)c4)nc23)c1 [compound 77] | < 10 nM
C[C@@H](Cn1cnnn1)Oc1cccc(-c2ccn3ncc(-c4cccc(C(=O)NCCCN5CCOCC5)c4)c3n2)c1 [compound 78] | < 10 nM
C[C@@H](Cn1cnnn1)Oc1cccc(-c2ccn3ncc(-c4cccc(C(=O)NCCCCO)c4)c3n2)c1 [compound 79] | < 10 nM
C[C@@H](Cn1cnnn1)Oc1cccc(-c2ccn3ncc(-c4cccc(C(=O)NCC(C)(C)O)c4)c3n2)c1 [compound 80] | < 10 nM
C[C@@H](Cn1cnnn1)Oc1cccc(-c2ccn3ncc(-c4cccc(C(=O)Nc5ccccc5)c4)c3n2)c1 [compound 81] | 10 to 100 nM
C[C@@H](Cn1cnnn1)Oc1cccc(-c2ccn3ncc(-c4cccc(C(=O)Nc5ccncc5)c4)c3n2)c1 [compound 82] | < 10 nM
C[C@@H](Cn1cnnn1)Oc1cccc(-c2ccn3ncc(-c4cccc(C(=O)Nc5ccccn5)c4)c3n2)c1 [compound 83] | < 10 nM
C[C@@H](Cn1cnnn1)Oc1cccc(-c2ccn3ncc(-c4cccc(C(=O)Nc5cccnc5)c4)c3n2)c1 [compound 84] | < 10 nM
C[C@@H](Cn1cnnn1)Oc1cccc(-c2ccn3ncc(-c4cccc(C(=O)Nc5cnn(C)c5)c4)c3n2)c1 [compound 85] | < 10 nM
C[C@@H](Cn1cnnn1)Oc1cccc(-c2ccn3ncc(-c4cccc(C(=O)NC5CN(Cc6ccccc6)C5)c4)c3n2)c1 [compound 86] | < 10 nM
C[C@@H](Cn1cnnn1)Oc1cccc(-c2ccn3ncc(-c4cccc(C(=O)NCCN5CCS(=O)(=O)CC5)c4)c3n2)c1 [compound 87] | < 10 nM
C[C@@H](Cn1cnnn1)Oc1cccc(-c2ccn3ncc(-c4cccc(C(=O)NC5CCN(C)C5)c4)c3n2)c1 (stereo partly shown) [compound 88] | < 10 nM

Structure (SMILES) | IC50
C[C@@H](Cn1cnnn1)Oc1cccc(-c2ccn3ncc(-c4cccc(C(=O)N5CCC(O)CC5)c4)c3n2)c1 [compound 89] | 10 to 100 nM
CC(=O)NCCNC(=O)c1cccc(-c2cnn3ccc(-c4cccc(O[C@@H](C)Cn5cnnn5)c4)nc23)c1 [compound 90] | < 10 nM
C[C@@H](Cn1cnnn1)Oc1cccc(-c2ccn3ncc(-c4cccc(C(=O)NCc5ccccc5)c4)c3n2)c1 [compound 91] | < 10 nM
C[C@@H](Cn1cnnn1)Oc1cccc(-c2ccn3ncc(-c4cccc(C(=O)NCc5ccccn5)c4)c3n2)c1 [compound 92] | < 10 nM
C[C@@H](Cn1cnnn1)Oc1cccc(-c2ccn3ncc(-c4cccc(C(=O)NCc5ccncc5)c4)c3n2)c1 [compound 93] | < 10 nM
C[C@@H](Cn1cnnn1)Oc1cccc(-c2ccn3ncc(-c4cccc(C(=O)NCc5cccnc5)c4)c3n2)c1 [compound 94] | < 10 nM
C[C@@H](Cn1cnnn1)Oc1cccc(-c2ccn3ncc(-c4cccc(C(=O)NCCn5ccnc5)c4)c3n2)c1 [compound 95] | < 10 nM
C[C@@H](Cn1cnnn1)Oc1cccc(-c2ccn3ncc(-c4cccc(C(=O)NCCn5cncn5)c4)c3n2)c1 [compound 96] | < 10 nM
C[C@@H](Cn1cnnn1)Oc1cccc(-c2ccn3ncc(-c4cccc(C(=O)NC5CC(=O)N(C)C5)c4)c3n2)c1 (stereo partly drawn) [compound 97, N-(1-methyl-5-oxopyrrolidin-3-yl)-3-[5-(3-{[(2S)-1-(1H-tetrazol-1-yl)propan-2-yl]oxy}phenyl)pyrazolo[1,5-a]pyrimidin-3-yl]benzamide] | < 10 nM
C[C@@H](Cn1cnnn1)Oc1cccc(-c2ccn3ncc(-c4cccc(C(=O)NC5CCN(C)CC5)c4)c3n2)c1 [compound 98] | < 10 nM
C[C@@H](Cn1cnnn1)Oc1cccc(-c2ccn3ncc(-c4cccc(C(=O)N5CCC(C)(O)CC5)c4)c3n2)c1 [compound 99] | 10 to 100 nM
C[C@@H](Cn1cnnn1)Oc1cccc(-c2ccn3ncc(-c4cccc(C(=O)NCC5CCOCC5)c4)c3n2)c1 [compound 100] | < 10 nM
COC1CCN(C(=O)c2cccc(-c3cnn4ccc(-c5cccc(O[C@@H](C)Cn6cnnn6)c5)nc34)c2)CC1 [compound 101] | 10 to 100 nM
CC(=O)NCCCNC(=O)c1cccc(-c2cnn3ccc(-c4cccc(O[C@@H](C)Cn5cnnn5)c4)nc23)c1 [compound 102] | < 10 nM
CCN(CC)CCNC(=O)c1cccc(-c2cnn3ccc(-c4cccc(O[C@@H](C)Cn5cnnn5)c4)nc23)c1 [compound 103] | < 10 nM
C[C@@H](Cn1cnnn1)Oc1cccc(-c2ccn3ncc(-c4cccc(C(=O)NCCCCN(C)C)c4)c3n2)c1 [compound 104] | < 10 nM
C[C@@H](Cn1cnnn1)Oc1cccc(-c2ccn3ncc(-c4cccc(C(=O)NCCc5ccccc5)c4)c3n2)c1 [compound 105] | 10 to 100 nM
C[C@@H](Cn1cnnn1)Oc1cccc(-c2ccn3ncc(-c4cccc(C(=O)NCCc5ccccn5)c4)c3n2)c1 [compound 106] | < 10 nM
C[C@@H](Cn1cnnn1)Oc1cccc(-c2ccn3ncc(-c4cccc(C(=O)NCCc5ccncc5)c4)c3n2)c1 [compound 107] | < 10 nM
C[C@@H](Cn1cnnn1)Oc1cccc(-c2ccn3ncc(-c4cccc(C(=O)NCCc5cccnc5)c4)c3n2)c1 [compound 108] | < 10 nM
C[C@@H](Cn1cnnn1)Oc1cccc(-c2ccn3ncc(-c4cccc(C(=O)N5CCn6ccnc6C5)c4)c3n2)c1 [compound 109] | 10 to 100 nM
C[C@@H](Cn1cnnn1)Oc1cccc(-c2ccn3ncc(-c4cccc(C(=O)N5CCn6ncnc6C5)c4)c3n2)c1 [compound 110] | 10 to 100 nM

Structure (SMILES) | IC50
C[C@@H](Cn1cnnn1)Oc1cccc(-c2ccn3ncc(-c4cccc(C(=O)NCCC5CCCCC5)c4)c3n2)c1 [compound 111] | 10 to 100 nM
C[C@@H](Cn1cnnn1)Oc1cccc(-c2ccn3ncc(-c4cccc(C(=O)NC5CCN(C)C(=O)C5)c4)c3n2)c1 (stereo partly shown) [compound 112] | < 10 nM
C[C@@H](Cn1cnnn1)Oc1cccc(-c2ccn3ncc(-c4cccc(C(=O)NCCN5CCCC5=O)c4)c3n2)c1 [compound 113] | < 10 nM
C[C@@H](Cc1nnn[nH]1)Oc1cccc(-c2ccn3ncc(-c4cccs4)c3n2)c1 [compound 114] | 10 to 100 nM
CNC(=O)c1cccc(-n2cnc3ccc(-c4ccc(F)c(O[C@@H](C)Cn5cnnn5)c4)nc32)c1 [compound 115] | < 10 nM
CNC(=O)c1ccnc(-n2cnc3ccc(-c4ccc(F)c(O[C@@H](C)Cn5cnnn5)c4)nc32)c1 [compound 116] | < 10 nM
CCN(CC)CCNC(=O)c1ccnc(-n2cnc3ccc(-c4ccc(F)c(O[C@@H](C)Cn5cnnn5)c4)nc32)c1 [compound 117] | < 10 nM
C[C@@H](Cn1cnnn1)Oc1cc(-c2ccc3ncn(-c4cnn(C(=O)OC(C)(C)C)c4)c3n2)ccc1F [compound 118] | < 10 nM
C[C@@H](Cn1cnnn1)Oc1cc(-c2ccc3ncn(-c4cn[nH]c4)c3n2)ccc1F [compound 119] | < 10 nM
C[C@@H](Cn1cnnn1)Oc1cc(-c2ccc3ncn(-c4cnn(C)c4)c3n2)ccc1F [compound 120] | 10 to 100 nM
C[C@@H](Cn1cnnn1)Oc1cc(-c2ccc3ncn(-c4ccn(C)n4)c3n2)ccc1F [compound 122] | < 10 nM
C[C@@H](Cn1cnnn1)Oc1cc(-c2ccn3ncc(-c4ccccc4C=O)c3n2)ccc1F [compound 123] | < 10 nM
C[C@@H](Cn1cnnn1)Oc1cc(-c2ccc3ncc(-c4cn(CC(=O)OCc5ccccc5)nc4C#N)n3n2)ccc1F [compound 124] | 10 to 100 nM
C[C@@H](Cn1cnnn1)Oc1cc(-c2ccc3ncc(-c4cn(CC(=O)O)nc4C#N)n3n2)ccc1F [compound 125] | 10 to 100 nM
COCCCNC(=O)Cn1cc(-c2cnc3ccc(-c4ccc(F)c(O[C@@H](C)Cn5cnnn5)c4)nn23)c(C#N)n1 [compound 126] | > 100 nM
C[C@@H](Cn1cnnn1)Oc1cc(-c2ccc3ncc(-c4cn(CC(=O)NCCN5CCOCC5)nc4C#N)n3n2)ccc1F [compound 127] | > 100 nM
COC(=O)c1cccc(-c2cnn3ccc(-c4ccc(F)c(O[C@@H](C)Cn5cnnn5)c4)nc23)c1Cl [compound 128] | 10 to 100 nM
C[C@@H](Cn1cnnn1)Oc1cc(-c2ccn3ncc(-c4ccccc4C(F)(F)F)c3n2)ccc1F [compound 129] | > 100 nM
C[C@@H](Cn1cnnn1)Oc1cc(-c2ccn3ncc(-c4cccc(C(F)(F)F)c4)c3n2)ccc1F [compound 130] | 10 to 100 nM
C[C@@H](Cn1cnnn1)Oc1cc(-c2ccn3ncc(-c4cccc(C(F)F)c4)c3n2)ccc1F [compound 131] | < 10 nM
